According to the CheMixHub ionic liquid set:

Test: xn = mol fraction of the nth substance listed
Settings: 101 kPa

N#C[C-](C#N)C#N.OCCC[n+]1ccccc1 + c1ccsc1
viscosity [mPa·s]
Settings	x1 = 0.4088	x1 = 0.505	x1 = 0.5955	x1 = 0.7045	x1 = 0.8231	x1 = 0.9377	x1 = 1
293.15 K	17.5	31.5	48.6	69.3	94.1	115	126
298.15 K	14.4	25.1	36.6	52	68.9	85.4	92.5
303.15 K	12	20.4	29.3	40	52.7	64.4	69.5
308.15 K	10.2	16.9	24.1	32.4	42.1	49.9	53.8
313.15 K	8.69	14.3	19.8	26.4	33.5	39.5	42.5
318.15 K	7.53	12.2	16.9	22.1	27.4	32.2	34.6
323.15 K	6.58	10.5	14.2	18.3	22.4	26.2	28.1
328.15 K	5.8	9.03	12	15.4	18.8	21.8	23.4
333.15 K	5.15	7.96	10.5	13.3	16.1	18.5	19.8
338.15 K	4.62	7.12	9.24	11.5	13.8	15.9	16.9
343.15 K	4.16	6.33	8.11	10	11.9	13.6	14.5
348.15 K	3.96	5.89	7.4	9.06	10.7	12.3	13.1

OC1OC[C@@H](O)[C@H](O)[C@H]1O (stereo not given in full) + O + CCCCCC[n+]1ccn(C)c1.[Br-]
298.15 K
Settings	viscosity [mPa·s]
x1 = 0.0001973, x3 = 0.001843	0.957
x1 = 0.000198, x3 = 0.003653	1.007
x1 = 0.0002099, x3 = 0.005424	1.054
x1 = 0.0002123, x3 = 0.007151	1.106
x1 = 0.0003779, x3 = 0.001843	0.961
x1 = 0.0003808, x3 = 0.003652	1.011
x1 = 0.0003928, x3 = 0.005423	1.059
x1 = 0.0004009, x3 = 0.00715	1.112
x1 = 0.0005548, x3 = 0.001843	0.965
x1 = 0.000588, x3 = 0.003652	1.016
x1 = 0.0005968, x3 = 0.005422	1.064
x1 = 0.0005973, x3 = 0.007149	1.119
x1 = 0.000739, x3 = 0.001842	0.97
x1 = 0.0007594, x3 = 0.003651	1.02
x1 = 0.0007857, x3 = 0.007147	1.124
x1 = 0.0007911, x3 = 0.005421	1.069
x1 = 0.0009323, x3 = 0.001842	0.974
x1 = 0.0009495, x3 = 0.00365	1.025
x1 = 0.0009642, x3 = 0.00542	1.074
x1 = 0.0009957, x3 = 0.007146	1.13
x1 = 0.001116, x3 = 0.001842	0.979
x1 = 0.001147, x3 = 0.005419	1.079
x1 = 0.001153, x3 = 0.003649	1.029
x1 = 0.001184, x3 = 0.007144	1.134
x1 = 0.0013, x3 = 0.001841	0.982
x1 = 0.001326, x3 = 0.003649	1.034
x1 = 0.001352, x3 = 0.005418	1.083
x1 = 0.001359, x3 = 0.007143	1.138
x1 = 0.001475, x3 = 0.001841	0.986
x1 = 0.001497, x3 = 0.003648	1.039
x1 = 0.001552, x3 = 0.005417	1.089
x1 = 0.001588, x3 = 0.007142	1.143
x1 = 0.001657, x3 = 0.001841	0.99
x1 = 0.001681, x3 = 0.003648	1.042
x1 = 0.001708, x3 = 0.005416	1.09
x1 = 0.001731, x3 = 0.00714	1.148
